Tested on: phospho-GSK3 (Ser9)
Assay: Cellular pGSK3 assay (phospho-GSK3 ELISA)
Assay type: cell-based
Details: Homo sapiens, MCF7 cells, 48 h incubation, read-out: Cellular pGSK3 pathway assay
Protocol: In order to study the cellular activity of the compounds according to the present invention, an ELISA-based assay has been established for the phosphorylated protein glycogen synthetase kinase 3 (GSK3). The assay is based on a solid phase sandwich ELISA that detects endogenous levels of phosphorylated GSK3 using a phospho-GSK3 (Ser9) specific antibody (BioSource International, Inc.; Catalog #KHO0461). After incubation with cell lysates, the coated antibody captures the phosphorylated GSK3 protein. Following extensive washing, GSK3 polyclonal antibody is added to detect the captured phospho-GSK3 protein. Secondary antibody (anti-rabbit IgG-HRP) is then used to recognize the bound detection antibody. After the second incubation and washing to remove all the excess anti-rabbit IgG-HRP, a substrate solution is added, which is acted upon by the bound enzyme to produce color. The intensity of this colored product is directly proportional to the concentration of GSK-3β [pS9] present in the original specimen. MCF7 cells (ATCC HTB-22) were seeded into 96 well fate bottom plates at a density of 10000 cells/well. After 24 h 1 μl each of the compound dilutions (test compounds were dissolved as 10 mM solutions in dimethylsulfoxide (DMSO) and subsequently diluted) were added into each well of the 96 well plates and incubated for 48 h at 37° C. in a humidified atmosphere containing 5% CO2. Cells were harvested and lysed in cell extraction buffer (10 mM Tris, pH 7.4, 100 mM NaCl, 1 mM EDTA, 1 mM EGTA, 1 mM NaF, 20 mM Na4P2O7, 2 mM Na3VO4, 1% Triton X-100, 10 vol % glycerol, 0.1 vol % SDS, 0.5 vol % deoxycholate, 1 mM phenylmethylsulfonylfluoride (PMSF)). The lysate were centrifuged for 10 min. at 4° C. and the supernatant were transferred to a new tube. 50 μl of sample diluent (standard diluent buffer, Biosource) were added and 100 μl of cell lysate transferred into the tube and vortexed. 100 μl of each diluted cell lysate were added to the appropriate ELISA well plate and incubated for 3 h at room temperature. The plates were washed 4 times with 1× wash buffer (Biosource). 50 μl of detection antibody (GSK3 (Ser9) detection antibody; BioSource) were added to each well and incubated for 30 min. at room temperature. The washing procedure was repeated between each step. 100 μl of HRP-linked secondary antibody (anti-mouse IgG HRP-linked antibody) were added to each well and incubated for 30 min. at room temperature. 100 μl of TMB substrate (0.05 vol % 3,3′,5,5′ tetramethylbenzidine, 0.1 vol % hydrogen peroxide, complex polypeptides in a buffered solution; Biosource) were added to each well and incubated for 30 min. at room temperature. Finally 100 μl of Stop solution (0.05 vol % α and β unsaturated carbonyl compound) were added to each well and the plate were shaked gently for a few seconds. The absorbance was measured at λ=450 nm (Wallac Victor2; Perkin Elmer, USA) within 30 min. after adding the stop solution.
The analysis of the data was performed using a statistical program (Excel; Microsoft, USA) and the IC50 of pGSK3 inhibition was determined.

Compound | IC50
CC(c1ccc(-c2nc3nccn3cc2-c2ccccc2)cc1)N1CCC(c2n[nH]c(-c3ccccn3)n2)CC1 (racemic) [Example 23, 6-phenyl-7-(4-{1-[4-(5-pyridin-2-yl-1H-1,2,4-triazol-3-yl)piperidin-1-yl]ethyl}phenyl)imidazo[1,2-a]pyrimidine] | > 10000 nM
Fc1cnc2nc(-c3ccc(CN4CCC(c5n[nH]c(-c6cnccn6)n5)CC4)cc3)c(-c3ccccc3)cn12 [Example 24, 3-fluoro-6-phenyl-7-(4-{[4-(5-pyrazin-2-yl-1,2,4-triazol-3-yl)piperidin-1-yl]methyl}phenyl)imidazo[1,2-a]pyrimidine] | 1000 to 10000 nM
Fc1cnc2nc(-c3ccc(CN4CCC(c5n[nH]c(-c6ncccn6)n5)CC4)cc3)c(-c3ccccc3)cn12 [Example 25, 3-fluoro-6-phenyl-7-(4-{[4-(5-pyrimidin-2-yl-1H-1,2,4-triazol-3-yl)piperidin-1-yl]methyl}phenyl)imidazo[1,2-a]pyrimidine] | > 10000 nM
Clc1cnn2cc(-c3ccccc3)c(-c3ccc(CN4CCC(c5n[nH]c(-c6ccccn6)n5)CC4)cc3)nc12 [Example 30, 3-Chloro-6-phenyl-5-(4-{[4-(5-pyridin-2-yl-1H-1,2,4-triazol-3-yl)piperidin-1-yl]methyl}phenyl)pyrazolo[1,5-a]pyrimidine] | < 1000 nM
Brc1cnn2cc(-c3ccccc3)c(-c3ccc(CN4CCC(c5n[nH]c(-c6ccccn6)n5)CC4)cc3)nc12 [Example 31, 3-Bromo-6-phenyl-5-(4-{[4-(5-pyridin-2-yl-1H-1,2,4-triazol-3-yl)piperidin-1-yl]methyl}phenyl)pyrazolo[1,5-a]pyrimidine] | < 1000 nM
N#Cc1cnn2cc(-c3ccccc3)c(-c3ccc(CN4CCC(c5n[nH]c(-c6ccccn6)n5)CC4)cc3)nc12 [Example 32, 6-Phenyl-5-(4-{[4-(5-pyridin-2-yl-1H-1,2,4-triazol-3-yl)piperidin-1-yl]methyl}phenyl)pyrazolo[1,5-a]pyrimidine-3-carbonitrile] | < 1000 nM
C#Cc1cnn2cc(-c3ccccc3)c(-c3ccc(CN4CCC(c5n[nH]c(-c6ccccn6)n5)CC4)cc3)nc12 [Example 33, 3-Ethynyl-6-phenyl-5-(4-{[4-(5-pyridin-2-yl-1H-1,2,4-triazol-3-yl)piperidin-1-yl]methyl}phenyl)pyrazolo[1,5-a]pyrimidine] | 1000 to 10000 nM
CCc1cnn2cc(-c3ccccc3)c(-c3ccc(CN4CCC(c5n[nH]c(-c6ccccn6)n5)CC4)cc3)nc12 [Example 34, 3-Ethyl-6-phenyl-5-(4-{[4-(5-pyridin-2-yl-1H-1,2,4-triazol-3-yl)piperidin-1-yl]methyl}phenyl)pyrazolo[1,5-a]pyrimidine] | 1000 to 10000 nM
Cc1ccnc(-c2nc(C3CCN(Cc4ccc(-c5nc6nccn6cc5-c5ccccc5)cc4)CC3)n[nH]2)c1 [Example 35, 7-[4-({4-[5-(4-Methylpyridin-2-yl)-1H-1,2,4-triazol-3-yl]piperidin-1-yl}methyl)phenyl]-6-phenylimidazo[1,2-a]pyrimidine] | 1000 to 10000 nM
Cc1cccc(-c2nc(C3CCN(Cc4ccc(-c5nc6nccn6cc5-c5ccccc5)cc4)CC3)n[nH]2)n1 [Example 36, 7-[4-({4-[5-(6-Methylpyridin-2-yl)-1H-1,2,4-triazol-3-yl]piperidin-1-yl}methyl)phenyl]-6-phenylimidazo[1,2-a]pyrimidine] | < 1000 nM
CCc1nc2nc(-c3ccc(CN4CCC(c5n[nH]c(-c6ccccn6)n5)CC4)cc3)c(-c3ccccc3)cn2n1 [Example 40, 2-Ethyl-6-phenyl-5-(4-{[4-(5-pyridin-2-yl-1H-1,2,4-triazol-3-yl)piperidin-1-yl]methyl}phenyl)[1,2,4]triazolo[1,5-a]pyrimidine] | < 1000 nM
